Results as given in publication PMC3237634 (Bioorganic & medicinal chemistry letters, 2011).
Read-outs that look alike come from different tables or passages of the source.

Legend:
[1] = molecular target: T1, hPEPT1 (Homo sapiens, UniProt P46059); format: cell-based; settings: for affinity for hPEPT1 compared to the lead promoiety H-Phe-Ser-Ala-OH: statistical comparison, N = 3
T1 sequence (P46059 1-708): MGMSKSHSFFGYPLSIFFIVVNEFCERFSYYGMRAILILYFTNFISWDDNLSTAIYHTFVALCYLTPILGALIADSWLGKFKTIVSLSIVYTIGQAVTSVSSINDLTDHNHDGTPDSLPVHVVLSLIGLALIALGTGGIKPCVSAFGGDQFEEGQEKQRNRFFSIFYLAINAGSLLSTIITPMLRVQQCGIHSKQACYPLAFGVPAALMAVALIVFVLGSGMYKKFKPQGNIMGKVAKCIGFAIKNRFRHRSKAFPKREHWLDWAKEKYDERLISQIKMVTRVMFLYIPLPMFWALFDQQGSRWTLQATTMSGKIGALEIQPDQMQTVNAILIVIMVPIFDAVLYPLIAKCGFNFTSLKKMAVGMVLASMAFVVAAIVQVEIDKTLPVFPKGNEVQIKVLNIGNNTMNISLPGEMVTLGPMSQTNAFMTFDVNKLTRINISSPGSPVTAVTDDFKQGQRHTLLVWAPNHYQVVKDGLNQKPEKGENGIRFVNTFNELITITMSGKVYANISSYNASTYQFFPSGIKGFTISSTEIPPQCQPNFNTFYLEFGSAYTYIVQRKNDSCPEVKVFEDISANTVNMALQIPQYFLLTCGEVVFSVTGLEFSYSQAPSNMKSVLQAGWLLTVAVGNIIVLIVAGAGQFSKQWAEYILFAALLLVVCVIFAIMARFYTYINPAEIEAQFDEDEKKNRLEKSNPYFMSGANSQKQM

[2] = molecular target: T1, hPEPT1; settings: investigation of 55 tripeptides; cited from earlier work
[3] = molecular target: T1, hPEPT1; settings: value obtained by refitting data presented in Thorn et al.; cited from earlier work

Compound	affinity for hPEPT1 compared to the lead promoiety H-Phe-Ser-Ala-OH [1]	interaction with hPEPT1 in translocation study [2]	further results
C[C@H](NC(=O)[C@H](COC(=O)c1ccccc1)CC(=O)[C@@H](N)Cc1ccccc1)C(=O)O.O=C(O)C(F)(F)F [Compound 14A, H-Phe-ψ[COCH2]Ser(Bz)-Ala-OH]	did not have significantly different affinities	–	–
CCC[C@H](NC(=O)[C@H](COC(=O)c1ccccc1)CC(=O)[C@@H](N)Cc1ccccc1)C(=O)O.O=C(O)C(F)(F)F [Compound 14B, H-Phe-ψ[COCH2]Ser(Bz)-Nva-OH]	did not have significantly different affinities	–	–
N[C@@H](Cc1ccccc1)C(=O)C[C@@H](COC(=O)c1ccccc1)C(=O)N[C@H](C(=O)O)C1CCCCC1.O=C(O)C(F)(F)F [Compound 14C, H-Phe-ψ[COCH2]Ser(Bz)-Chg-OH]	significantly higher affinity	–	Ki [1]: 50 µM
Asp-Ile-Arg	–	not recognized by hPEPT1	–
H-Phe-Ser-Ala-OH	–	–	Ki [3]: 260 µM
Met-Pro-Pro	–	inhibitor	–
